From ChEMBL document CHEMBL5126532, “Synthetic approaches and structural diversity of triazolylbutanols derived from voriconazole in the antifungal drug development” (Eur J Med Chem, 2022) come the findings set out here.

Converted amounts (≈) assume the structure as drawn.

What all share (assay type): functional
In assay [1] the test system is Candida albicans. In words: Antifungal activity against Candida albicans.
The subject of assay [2] is Aspergillus fumigatus. The experiment in a line: Antifungal activity against Aspergillus fumigatus.
The test system of assay [3] is Candida parapsilosis. The experiment in a line: Antifungal activity against Candida parapsilosis. To be noted: Lodderomyces parapsilosis.
For assay [4], the system named is Aspergillus flavus. The experiment in a line: Antifungal activity against Aspergillus flavus SANK 18497 by 96-well microplate method.
Assay [5] has as its system Aspergillus fumigatus. In words: Antifungal activity against Aspergillus fumigatus SANK 10569 by 96-well microplate method.
For assay [6], the system named is Candida albicans. In words: Antifungal activity against Candida albicans SANK 51486 by 96-well microplate method.
The subject of assay [7] is Cryptococcus neoformans. The experiment in a line: Antifungal activity against Cryptococcus neoformans TIMM 1855 by 96-well microplate method.
Assay [8] concerns Candida albicans. In words: Antifungal activity against Candida albicans assessed as inhibition of fungal growth incubated for 20 hrs.
For assay [9], the system named is Candida albicans. The experiment in a line: In vivo antifungal activity against Candida albicans infected in CDF1 mouse treated po 4 hrs after injection twice daily for 2 days measured on day 10. Conditions: 48 h, time 2 day.
Assay [10] has as its system Cryptococcus neoformans. The experiment in a line: Antifungal activity against Cryptococcus neoformans TIMM1855 assessed as inhibition of fungal growth incubated for 68 hrs.
In assay [11] the test system is Cryptococcus neoformans. In words: Antifungal activity against Cryptococcus neoformans TIMM1740 assessed as inhibition of fungal growth incubated for 68 hrs.
In assay [12] the test system is Candida albicans. The experiment in a line: Antifungal activity against Candida albicans TIMM1756 assessed as inhibition of fungal growth incubated for 20 hrs.
The test system of assay [13] is Candida albicans. In words: Antifungal activity against Candida albicans TIMM1850 assessed as inhibition of fungal growth incubated for 20 hrs.
In assay [14] the test system is Aspergillus fumigatus. The experiment in a line: In vivo antifungal activity against Aspergillus fumigatus infected in CDF1 mouse treated po 4 hrs after injection twice daily for 2 days measured on day 10. To be noted: 48 h, time 2 day.
In assay [15] the test system is Aspergillus fumigatus. In words: Antifungal activity against Aspergillus fumigatus TIMM1728 assessed as inhibition of fungal growth incubated for 20 hrs.
The subject of assay [16] is Aspergillus fumigatus. The experiment in a line: Antifungal activity against Aspergillus fumigatus IFO6344 assessed as inhibition of fungal growth incubated for 20 hrs.

What is called MIC80 is the lowest concentration that inhibits either 80% of growth or 80% of the strains tested, depending on the study. Higher therefore signals lower susceptibility. As usually defined, the MIC is the smallest concentration in the dilution series that meets the test's criterion for growth inhibition. The term ED50 denotes the dose that gives a 50% effect, or the effect in half of the subjects.

In turn, `C[C@@H](OCc1cc(-c2ccc(OC(F)(F)F)cc2)no1)[C@](O)(Cn1cncn1)c1ccc(F)cc1F` yielded an MIC80 in assay [1] of 0.0313 µg/mL (≈ 0.0613 µM). `C[C@@H](OCc1cc(-c2ccc(F)cc2Cl)no1)[C@](O)(Cn1cncn1)c1ccc(F)cc1F` gave an MIC80 in assay [1] of 0.0313 µg/mL (≈ 0.0654 µM). The compound `C[C@@H](N1CCN(c2ccc(-n3cnn(Cc4ccc(OC(F)(F)F)cc4)c3=O)cc2)CC1)[C@](O)(Cn1cncn1)c1ccc(F)cc1F` registered an MIC in assay [2] of 32 µg/mL (≈ 47.7 µM). With `C[C@@H](OCc1cc(-c2ccc(C#N)cc2)no1)[C@](O)(Cn1cncn1)c1ccc(F)cc1F`, the MIC80 in assay [1] came out at 0.0313 µg/mL (≈ 0.0693 µM). The same measure, in the same setting: the value for `Cc1ccc(-c2cc(CO[C@H](C)[C@](O)(Cn3cncn3)c3ccc(F)cc3F)on2)cc1` was 0.0313 µg/mL (≈ 0.0711 µM). `CC(C)n1ncn(-c2ccc(N3CCN([C@H](C)[C@](O)(Cn4cncn4)c4ccc(F)cc4F)CC3)nc2)c1=O` displayed an MIC in [3] of 0.25 µg/mL (≈ 0.463 µM). For the compound `C[C@@H](OCc1cc(-c2ccc(Cl)cc2F)no1)[C@](O)(Cn1cncn1)c1ccc(F)cc1F`, the MIC80 in assay [1] worked out at 0.0313 µg/mL (≈ 0.0654 µM). As to `C[C@@H](N1CCN(c2ccc(-n3cnn(Cc4cccc(C(F)(F)F)c4)c3=O)nc2)CC1)[C@](O)(Cn1cncn1)c1ccc(F)cc1F`, it took 4 µg/mL (≈ 6.1 µM) to inhibit growth in assay [3] (MIC). With `C[C@@H](S[C@H]1CO[C@H](/C=C/C=C/c2ccc(C#N)cc2F)OC1)[C@](O)(Cn1cncn1)c1c(F)cccc1F`, the MIC in [4], in assay [5], in [6] and in assay [7] was not above 0.008 µg/mL each time. On to `C[C@@H](OCc1cc(-c2cccc(Cl)c2)no1)[C@](O)(Cn1cncn1)c1ccc(F)cc1F`, for which, in assay [1], the MIC80 was found to be 0.0313 µg/mL (≈ 0.0679 µM).

Consider `C[C@@H](N1CCN(c2ccc(-n3cnn(Cc4ccc(C(F)(F)F)cc4)c3=O)cn2)CC1)[C@](O)(Cn1cncn1)c1ccc(F)cc1F`, for which, in assay [3], the lowest concentration to inhibit growth (MIC) was 4 µg/mL (≈ 6.1 µM).

On to `C[C@@H](N1CCN(c2ccc(-n3cnn(Cc4cc(C(F)(F)F)cc(C(F)(F)F)c4C(F)(F)F)c3=O)cn2)CC1)[C@](O)(Cn1cncn1)c1ccc(F)cc1F`, for which, in [3], the MIC came out at 4 µg/mL (≈ 5.05 µM). As to `CCC(=O)OC[n+]1cnn(C[C@](O)(c2ccc(F)cc2F)[C@@H](C)N2CCN(c3ccc(-n4cnnn4)cc3)C2=O)c1.[I-]`, the MIC in [8] is 0.016 µg/mL. Consider `CC(=O)NCCOC(=O)OC[n+]1cnn(C[C@](O)(c2ccc(F)cc2F)[C@@H](C)N2CCN(c3ccc(-n4cnnn4)cc3)C2=O)c1.[I-]`, for which the MIC in assay [8] was found to be 0.016 µg/mL. As for `Cc1ccccc1-c1cc(CO[C@H](C)[C@](O)(Cn2cncn2)c2ccc(F)cc2F)on1`, the MIC80 in [1] was 0.0313 µg/mL (≈ 0.0711 µM).

In assay [3], `C[C@@H](N1CCN(c2ccc(-n3cnn(Cc4ccc(OC(F)(F)F)cc4)c3=O)cn2)CC1)[C@](O)(Cn1cncn1)c1ccc(F)cc1F` displayed an MIC of 4 µg/mL (≈ 5.96 µM).

With `C[C@@H](S[C@H]1CO[C@H](/C=C/C=C/c2ccc(C#N)cc2)OC1)[C@](O)(Cn1cncn1)c1ccc(F)cc1F`, the MIC in assay [4], in assay [5], in [6] and in assay [7] was not above 0.008 µg/mL each time. Take `C[C@@H](OCc1cc(-c2ccc(C(F)(F)F)cc2)no1)[C@](O)(Cn1cncn1)c1ccc(F)cc1F`: the MIC80 in assay [1] amounted to 0.0313 µg/mL (≈ 0.0633 µM). Still for that read-out and setting: the value for `C[C@@H](OCc1cc(-c2c(F)c(F)c(F)c(F)c2F)no1)[C@](O)(Cn1cncn1)c1ccc(F)cc1F` was 0.0313 µg/mL (≈ 0.0606 µM). On to `C[C@@H](OCc1cc(-c2cccc(F)c2)no1)[C@](O)(Cn1cncn1)c1ccc(F)cc1F`, for which, in assay [1], the MIC80 amounted to 0.0313 µg/mL (≈ 0.0704 µM).

Compound `C[C@@H](OCc1cc(-c2ccc(F)c(Cl)c2)no1)[C@](O)(Cn1cncn1)c1ccc(F)cc1F` gave an MIC80 in [1] of 0.0313 µg/mL (≈ 0.0654 µM).

As to `C[C@@H](N1CCN(c2ccc(-n3cncn3)cc2)C1=O)[C@](O)(Cn1cncn1)c1ccc(F)cc1F`, the ED50 in [9] is 0.18 mg/kg; in assay [14] it was 4.4 mg/kg. Also, the MIC in assay [10] was 0.016 µg/mL (≈ 0.0333 µM); in [11], 0.016 µg/mL (≈ 0.0333 µM); in [12], not above 0.001 µg/mL; in [13] it was not above 0.001 µg/mL; in assay [15], 0.25 µg/mL (≈ 0.52 µM); in assay [16], 0.25 µg/mL (≈ 0.52 µM). The compound `C[C@@H](OCc1cc(-c2ccccc2F)no1)[C@](O)(Cn1cncn1)c1ccc(F)cc1F` had an MIC80 in [1] of 0.0313 µg/mL (≈ 0.0704 µM). On to `C[C@@H](N1CCN(c2ccc(-n3cnn(Cc4ccc(OC(F)(F)F)cc4)c3=O)nc2)CC1)[C@](O)(Cn1cncn1)c1ccc(F)cc1F`, for which, in assay [3], the lowest concentration to inhibit growth (MIC) was 4 µg/mL (≈ 5.96 µM). On the same count and under the same terms, the value for `C[C@@H](N1CCN(c2ccc(-n3cnn(Cc4ccc(C(F)(F)F)cc4)c3=O)nc2)CC1)[C@](O)(Cn1cncn1)c1ccc(F)cc1F` was 4 µg/mL (≈ 6.1 µM). Consider `C[C@@H](S[C@H]1CO[C@H](/C=C/C=C/c2ccc(C#N)cc2F)OC1)[C@](O)(Cn1cncn1)c1cccc(F)c1F`, for which the MIC in assay [4], in assay [5], in assay [6] and in assay [7] was not above 0.008 µg/mL each time. In assay [1], `C[C@@H](OCc1cc(-c2ccccc2)no1)[C@](O)(Cn1cncn1)c1ccc(F)cc1F` came in with an MIC80 of 0.0313 µg/mL (≈ 0.0734 µM).
